{"source": "paper PMC7782785", "about": "“Outer-membrane-acting peptides and lipid II-targeting antibiotics cooperatively kill Gram-negative pathogens” (Communications Biology, 2021)", "key": {"A. baumannii ATCC 17978": {"tested_on": "A. baumannii ATCC 17978", "assay": "microbe, parasite or virus in culture", "assay_type": "cell-based", "settings": "Acinetobacter baumannii, ATCC17978, read-out: MIC alone (MICA vancomycin, MICB D-11)", "protocol": "(§1) MIC tests were performed in triplicate by liquid growth inhibition microdilution assays in sterile polypropylene microtiter plates according to the Clinical and Laboratory Standards Institute (CLSI) guideline for bacteria that grow aerobically. Briefly, the indicator strains were first streaked on the appropriate agar plate, and then single colonies were picked and incubated overnight in liquid broth. The final inoculum of bacteria was 5*10^5 CFU/mL prepared in CAMHB (cationic adjusted Mueller–Hinton broth, Sigma-Aldrich) or CAMHB plus 5% of lysed horse blood (TCS Biosciences, Buckingham, UK) in the case of S. pneumoniae. The antimicrobials were 2-fold serially diluted and 50 µL diluted bacterial suspension was added to each well to make the final volume 100 µL. The microtiter plates and the count plates were incubated at 37 °C for 16–20 h without shaking. Growth inhibition was assessed by measuring the OD600 using a microplate reader (Tecan Infinity F200). The lowest concentration of the antimicrobials that inhibits visible growth of the indicator strain is identified as the MIC value."}, "A. baumannii B2026": {"tested_on": "A. baumannii B2026", "assay": "microbe, parasite or virus in culture", "assay_type": "cell-based", "settings": "Acinetobacter baumannii, B2026, read-out: MIC alone (MICA vancomycin, MICB D-11)", "protocol": "as §1"}, "E. coli ATCC BAA-2452": {"tested_on": "E. coli ATCC BAA-2452", "assay": "microbe, parasite or virus in culture", "assay_type": "cell-based", "settings": "Escherichia coli, ATCCBAA2452, read-out: MIC alone (MICA vancomycin, MICB D-11)", "protocol": "as §1"}, "K. pneumoniae ATCC700603": {"tested_on": "K. pneumoniae ATCC700603", "assay": "microbe, parasite or virus in culture", "assay_type": "cell-based", "settings": "Klebsiella pneumoniae, ATCC700603, read-out: MIC alone (MICA vancomycin, MICB D-11)", "protocol": "as §1"}, "K. pneumoniae B1945": {"tested_on": "K. pneumoniae B1945", "assay": "microbe, parasite or virus in culture", "assay_type": "cell-based", "settings": "Klebsiella pneumoniae, B1945, read-out: MIC alone (MICA vancomycin, MICB D-11)", "protocol": "as §1"}, "P. aeruginosa ATCC 27853": {"tested_on": "P. aeruginosa ATCC 27853", "assay": "microbe, parasite or virus in culture", "assay_type": "cell-based", "settings": "Pseudomonas aeruginosa, ATCC27853, read-out: MIC alone (MICA vancomycin, MICB D-11)", "protocol": "as §1"}, "P. aeruginosa PA14 [1]": {"tested_on": "P. aeruginosa PA14", "assay": "microbe, parasite or virus in culture", "assay_type": "cell-based", "settings": "Pseudomonas aeruginosa, PA14, read-out: MIC alone (MICA vancomycin, MICB D-11)", "protocol": "as §1"}, "[2]": {"tested_on": "all the Gram-negative strains tested", "assay": "organism not typed", "protocol": "as §1\nThe condition for the tests and the analysis of the plates were performed as described above for the MIC tests.\nHemolytic activity was determined with fresh human red blood cells (hRBCs)[28]. The hRBCs were centrifuged (1000×g, 5 min) and the supernatant was discarded. The pellets were washed three times with PBS and diluted in PBS to make the cell stock solution with a cell density of 2*10^8 cells/mL. […] 1% Triton X-100 and PBS were used as controls. […] The supernatant was transferred to a new 96-well plate and hemolysis was monitored by measuring the absorbance at 450 nm (OD450). Hemolysis levels were calculated as percentage. % hemolysis = 100 × (As−A0)/(At−A0), where As, A0, and At are the absorbance of the hRBCs suspension in PBS with antimicrobial agents (As), without antimicrobial agents (A0), and with 1% Triton X-100 (At). […] For the TI calculation (TI = MHC/GM), other factors as the GM (geometric mean of MIC value of all the Gram-negative strains tested) were calculated."}, "K. pneumoniae LMG 20218": {"tested_on": "K. pneumoniae LMG 20218", "assay": "Antimicrobial activity in blood (ex vivo bacteremia model)", "assay_type": "cell-based", "settings": "human blood, 10^8 CFU/mL inoculum, 37 °C, alone or (combination) with 4 µM D-11, triplicate", "protocol": "Briefly, blood from healthy donors was obtained from Sanquin (certified Dutch organization responsible for meeting the need in healthcare for blood and blood products, https://www.sanquin.nl/) and infected with 10^8 CFU/mL of K. pneumoniae LMG 20218. […] At 1, 2, 4, and 6 h 100 µL samples were taken from each one of the tubes and decimal serially diluted in PBS. Drops of 10 µL of each one of the dilutions were spotted on LB agar medium to follow the development of the infection. The experiment was performed in triplicate. Non-infected blood, infected blood, and blood plus peptide were used as a control."}, "P. aeruginosa PA14 [3]": {"tested_on": "P. aeruginosa PA14", "assay": "Murine abscess model", "assay_type": "in vivo, BALB/c mice", "protocol": "An overnight P. aeruginosa PA14 culture was inoculated into fresh LB medium (100-fold dilution) and grown until an OD600 of 1.0. The culture was washed twice and resuspended in 0.9% NaCl to 10^8 CFU/mL. Four groups of five 6-week-old female BALB/c mice were used. […] After 24 h, the mice were sacrificed and the abscesses were excised to count the CFU. The bacterial loads were determined by serial dilution and plating. All animal experiments complied with the US and Chinese national guidelines for the use of animals in research. The protocol was approved by the Animal Care and Use Committee of the College of Life Sciences, Nankai University (permission number NK-04-2012). All procedures involving animals were performed after animals were anesthetized. The experimental results were analyzed with the GraphPad Prism software."}}, "data": [{"smiles": "CN[C@H](CC(C)C)C(=O)N[C@H]1C(=O)N[C@@H](CC(N)=O)C(=O)N[C@H]2C(=O)N[C@H]3C(=O)N[C@H](C(=O)N[C@H](C(=O)O)c4cc(O)cc(O)c4-c4cc3ccc4O)[C@H](O)c3ccc(c(Cl)c3)Oc3cc2cc(c3O[C@@H]2O[C@H](CO)[C@@H](O)[C@H](O)[C@H]2O[C@H]2C[C@](C)(N)[C@H](O)[C@H](C)O2)Oc2ccc(cc2Cl)[C@H]1O", "note": "[Vancomycin]", "values": [{"measurement": "MIC", "setting": "A. baumannii ATCC 17978", "result": 88.3, "unit": "µM"}, {"measurement": "MIC", "setting": "A. baumannii B2026", "result": 22.1, "unit": "µM"}, {"measurement": "MIC", "setting": "E. coli ATCC BAA-2452", "result": "> 88.3", "unit": "µM"}, {"measurement": "MIC", "setting": "K. pneumoniae ATCC700603", "result": "> 88.3", "unit": "µM"}, {"measurement": "MIC", "setting": "K. pneumoniae B1945", "result": "> 88.3", "unit": "µM"}, {"measurement": "MIC", "setting": "P. aeruginosa ATCC 27853", "result": "> 88.3", "unit": "µM"}, {"measurement": "MIC", "setting": "P. aeruginosa PA14 [1]", "result": 88.3, "unit": "µM"}, {"measurement": "increase of MIC against Gram-negative pathogens when LPS was in the medium", "setting": "[2]; LPS 1 mg/mL, vancomycin: except against A. baumannii", "result": 2, "unit": "fold"}, {"measurement": "MIC", "setting": "[2]; read-out: GM, MIC geometric mean against all the Gram-negative strains tested", "result": 87.7, "unit": "µM"}, {"measurement": "bacterial count in infected whole blood after 6 h", "setting": "K. pneumoniae LMG 20218; vancomycin 2 µM", "result": "10^12 CFU/mL"}, {"measurement": "bacterial count in infected whole blood after 6 h", "setting": "K. pneumoniae LMG 20218; vancomycin 4 µM", "result": "10^12 CFU/mL"}, {"measurement": "bacterial count in infected whole blood after 6 h", "setting": "K. pneumoniae LMG 20218; vancomycin 8 µM", "result": "10^12 CFU/mL"}, {"measurement": "bacterial count in infected whole blood after 6 h", "setting": "K. pneumoniae LMG 20218; vancomycin 16 µM", "result": "10^10 CFU/mL"}, {"measurement": "log10 CFU per abscess", "setting": "P. aeruginosa PA14 [3]; mouse 1 of 5, P. aeruginosa PA14 s.c., treatment injected into infection area 1 h post-infection, 24 h, vancomycin 3 mg/kg, D-11 10 mg/kg, or both", "result": 8.341, "unit": "log10 CFU per abscess"}, {"measurement": "log10 CFU per abscess", "setting": "P. aeruginosa PA14 [3]; mouse 2 of 5, same conditions", "result": 7.354, "unit": "log10 CFU per abscess"}, {"measurement": "log10 CFU per abscess", "setting": "P. aeruginosa PA14 [3]; mouse 3 of 5, same conditions", "result": 7.321, "unit": "log10 CFU per abscess"}, {"measurement": "log10 CFU per abscess", "setting": "P. aeruginosa PA14 [3]; mouse 4 of 5, same conditions", "result": 7.43, "unit": "log10 CFU per abscess"}, {"measurement": "log10 CFU per abscess", "setting": "P. aeruginosa PA14 [3]; mouse 5 of 5, same conditions", "result": 7.5121, "unit": "log10 CFU per abscess"}]}]}
